From US20120245137A1 (Zalicus Pharmaceuticals Ltd., priority 2009, published 2012)

Key:
Format in all cases: cell-based
[1] = target: human α1H T-type channels (Homo sapiens, UniProt O95180); experiment: T-type calcium channel block, whole cell patch clamp, α1H; conditions: HEK cells stably expressing human α1H; mainly non-inactivated protocol; values above 10,000 nM represented as 10000
How it was run: (§1)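 Using standard patch-clamp, T-type currents were recorded from stably transfected human α1G or α1H HEK 293 cells. Separate non-inactivating and inactivation voltage protocols distinguished resting from voltage-dependent block by locally applied compound in 0.1-0.01% DMSO.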

[2] = target: human α1G T-type channels (Homo sapiens, UniProt O43497); experiment: T-type calcium channel block, whole cell patch clamp, α1G; conditions: HEK cells stably expressing human α1G; mainly non-inactivated protocol; values above 10,000 nM represented as 10000
Sequence of human α1G T-type channels (O43497 whole entry): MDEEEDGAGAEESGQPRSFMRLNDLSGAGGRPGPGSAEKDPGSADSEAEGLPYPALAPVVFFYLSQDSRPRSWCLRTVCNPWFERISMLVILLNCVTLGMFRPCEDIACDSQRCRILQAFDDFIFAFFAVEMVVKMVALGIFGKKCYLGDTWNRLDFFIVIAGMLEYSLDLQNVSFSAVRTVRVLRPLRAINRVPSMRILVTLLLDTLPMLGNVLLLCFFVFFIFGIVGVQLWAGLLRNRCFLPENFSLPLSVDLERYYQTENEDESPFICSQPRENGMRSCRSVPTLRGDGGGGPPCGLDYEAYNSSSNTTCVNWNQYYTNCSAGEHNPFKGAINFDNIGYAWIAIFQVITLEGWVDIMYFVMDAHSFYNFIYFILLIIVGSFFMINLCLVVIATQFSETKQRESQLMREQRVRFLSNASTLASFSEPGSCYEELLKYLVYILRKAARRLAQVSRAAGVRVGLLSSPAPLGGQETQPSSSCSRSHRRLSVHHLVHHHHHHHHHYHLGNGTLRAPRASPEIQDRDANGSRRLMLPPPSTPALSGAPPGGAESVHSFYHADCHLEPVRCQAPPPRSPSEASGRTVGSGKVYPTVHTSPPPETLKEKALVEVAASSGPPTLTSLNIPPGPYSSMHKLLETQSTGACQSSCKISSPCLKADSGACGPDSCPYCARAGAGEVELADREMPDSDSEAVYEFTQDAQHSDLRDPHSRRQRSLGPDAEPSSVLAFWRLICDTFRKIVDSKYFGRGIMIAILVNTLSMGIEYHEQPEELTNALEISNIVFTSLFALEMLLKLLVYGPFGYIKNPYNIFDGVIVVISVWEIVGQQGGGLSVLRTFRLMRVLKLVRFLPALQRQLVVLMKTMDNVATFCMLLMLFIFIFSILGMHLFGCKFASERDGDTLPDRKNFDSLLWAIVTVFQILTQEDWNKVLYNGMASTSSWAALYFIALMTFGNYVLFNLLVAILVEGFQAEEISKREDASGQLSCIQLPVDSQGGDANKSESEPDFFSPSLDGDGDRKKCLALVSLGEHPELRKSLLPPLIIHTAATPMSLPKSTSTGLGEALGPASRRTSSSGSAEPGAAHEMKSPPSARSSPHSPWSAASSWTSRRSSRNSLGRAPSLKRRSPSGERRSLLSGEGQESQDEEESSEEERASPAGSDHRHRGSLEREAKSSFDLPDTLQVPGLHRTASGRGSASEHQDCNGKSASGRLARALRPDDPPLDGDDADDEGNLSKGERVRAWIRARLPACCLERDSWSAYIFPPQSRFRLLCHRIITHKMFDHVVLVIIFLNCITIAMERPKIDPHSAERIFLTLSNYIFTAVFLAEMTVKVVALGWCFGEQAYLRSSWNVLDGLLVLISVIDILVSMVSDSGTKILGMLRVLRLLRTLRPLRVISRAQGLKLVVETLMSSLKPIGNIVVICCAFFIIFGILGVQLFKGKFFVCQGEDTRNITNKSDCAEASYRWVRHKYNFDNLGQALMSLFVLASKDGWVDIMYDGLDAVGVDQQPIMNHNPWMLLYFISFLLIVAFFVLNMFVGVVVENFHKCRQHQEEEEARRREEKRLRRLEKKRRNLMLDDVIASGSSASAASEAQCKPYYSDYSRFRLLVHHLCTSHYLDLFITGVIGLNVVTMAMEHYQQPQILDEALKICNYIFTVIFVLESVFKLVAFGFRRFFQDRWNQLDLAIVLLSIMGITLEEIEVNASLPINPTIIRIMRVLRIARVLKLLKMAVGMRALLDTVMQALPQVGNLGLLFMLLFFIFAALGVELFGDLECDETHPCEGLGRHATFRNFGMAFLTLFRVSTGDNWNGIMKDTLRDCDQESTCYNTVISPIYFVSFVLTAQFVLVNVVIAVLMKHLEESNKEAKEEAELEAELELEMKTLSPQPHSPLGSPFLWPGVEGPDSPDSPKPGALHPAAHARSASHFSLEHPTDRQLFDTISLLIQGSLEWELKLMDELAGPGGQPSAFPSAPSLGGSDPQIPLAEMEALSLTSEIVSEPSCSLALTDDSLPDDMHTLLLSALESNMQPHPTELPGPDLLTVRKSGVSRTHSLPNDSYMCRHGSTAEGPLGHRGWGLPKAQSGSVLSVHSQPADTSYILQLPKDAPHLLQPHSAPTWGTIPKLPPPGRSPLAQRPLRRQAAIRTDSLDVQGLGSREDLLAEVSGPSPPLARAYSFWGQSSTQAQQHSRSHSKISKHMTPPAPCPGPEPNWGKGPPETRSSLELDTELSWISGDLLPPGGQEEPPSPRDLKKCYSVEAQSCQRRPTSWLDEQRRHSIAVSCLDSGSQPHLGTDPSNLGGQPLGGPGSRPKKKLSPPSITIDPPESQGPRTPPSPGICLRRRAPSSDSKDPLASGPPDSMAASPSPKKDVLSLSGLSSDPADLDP
How it was run: as §1

[3] = target: N-type calcium channel subunits (α1B, α2δ, and β3a) (Homo sapiens, UniProt Q00975); experiment: Block of Cav2.2 channel, whole cell voltage clamp, manual and PatchXpress; conditions: Table 5; table follows Assay Example 3 (whole cell voltage clamp / PatchXpress); assay not given
How it was run: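 Percent block taken as current amplitude ratio with versus without compound, applied in rising doses; IC50 fitted where one cell received multiple doses. Protocol: 50 ms pulses to +20 mV at 0.067 Hz from […] or −90 mV holding; P/n leak subtraction, no junction-potential correction; manual and PatchXpress recordings.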

Sequence of human α1H T-type channels (O95180 whole entry): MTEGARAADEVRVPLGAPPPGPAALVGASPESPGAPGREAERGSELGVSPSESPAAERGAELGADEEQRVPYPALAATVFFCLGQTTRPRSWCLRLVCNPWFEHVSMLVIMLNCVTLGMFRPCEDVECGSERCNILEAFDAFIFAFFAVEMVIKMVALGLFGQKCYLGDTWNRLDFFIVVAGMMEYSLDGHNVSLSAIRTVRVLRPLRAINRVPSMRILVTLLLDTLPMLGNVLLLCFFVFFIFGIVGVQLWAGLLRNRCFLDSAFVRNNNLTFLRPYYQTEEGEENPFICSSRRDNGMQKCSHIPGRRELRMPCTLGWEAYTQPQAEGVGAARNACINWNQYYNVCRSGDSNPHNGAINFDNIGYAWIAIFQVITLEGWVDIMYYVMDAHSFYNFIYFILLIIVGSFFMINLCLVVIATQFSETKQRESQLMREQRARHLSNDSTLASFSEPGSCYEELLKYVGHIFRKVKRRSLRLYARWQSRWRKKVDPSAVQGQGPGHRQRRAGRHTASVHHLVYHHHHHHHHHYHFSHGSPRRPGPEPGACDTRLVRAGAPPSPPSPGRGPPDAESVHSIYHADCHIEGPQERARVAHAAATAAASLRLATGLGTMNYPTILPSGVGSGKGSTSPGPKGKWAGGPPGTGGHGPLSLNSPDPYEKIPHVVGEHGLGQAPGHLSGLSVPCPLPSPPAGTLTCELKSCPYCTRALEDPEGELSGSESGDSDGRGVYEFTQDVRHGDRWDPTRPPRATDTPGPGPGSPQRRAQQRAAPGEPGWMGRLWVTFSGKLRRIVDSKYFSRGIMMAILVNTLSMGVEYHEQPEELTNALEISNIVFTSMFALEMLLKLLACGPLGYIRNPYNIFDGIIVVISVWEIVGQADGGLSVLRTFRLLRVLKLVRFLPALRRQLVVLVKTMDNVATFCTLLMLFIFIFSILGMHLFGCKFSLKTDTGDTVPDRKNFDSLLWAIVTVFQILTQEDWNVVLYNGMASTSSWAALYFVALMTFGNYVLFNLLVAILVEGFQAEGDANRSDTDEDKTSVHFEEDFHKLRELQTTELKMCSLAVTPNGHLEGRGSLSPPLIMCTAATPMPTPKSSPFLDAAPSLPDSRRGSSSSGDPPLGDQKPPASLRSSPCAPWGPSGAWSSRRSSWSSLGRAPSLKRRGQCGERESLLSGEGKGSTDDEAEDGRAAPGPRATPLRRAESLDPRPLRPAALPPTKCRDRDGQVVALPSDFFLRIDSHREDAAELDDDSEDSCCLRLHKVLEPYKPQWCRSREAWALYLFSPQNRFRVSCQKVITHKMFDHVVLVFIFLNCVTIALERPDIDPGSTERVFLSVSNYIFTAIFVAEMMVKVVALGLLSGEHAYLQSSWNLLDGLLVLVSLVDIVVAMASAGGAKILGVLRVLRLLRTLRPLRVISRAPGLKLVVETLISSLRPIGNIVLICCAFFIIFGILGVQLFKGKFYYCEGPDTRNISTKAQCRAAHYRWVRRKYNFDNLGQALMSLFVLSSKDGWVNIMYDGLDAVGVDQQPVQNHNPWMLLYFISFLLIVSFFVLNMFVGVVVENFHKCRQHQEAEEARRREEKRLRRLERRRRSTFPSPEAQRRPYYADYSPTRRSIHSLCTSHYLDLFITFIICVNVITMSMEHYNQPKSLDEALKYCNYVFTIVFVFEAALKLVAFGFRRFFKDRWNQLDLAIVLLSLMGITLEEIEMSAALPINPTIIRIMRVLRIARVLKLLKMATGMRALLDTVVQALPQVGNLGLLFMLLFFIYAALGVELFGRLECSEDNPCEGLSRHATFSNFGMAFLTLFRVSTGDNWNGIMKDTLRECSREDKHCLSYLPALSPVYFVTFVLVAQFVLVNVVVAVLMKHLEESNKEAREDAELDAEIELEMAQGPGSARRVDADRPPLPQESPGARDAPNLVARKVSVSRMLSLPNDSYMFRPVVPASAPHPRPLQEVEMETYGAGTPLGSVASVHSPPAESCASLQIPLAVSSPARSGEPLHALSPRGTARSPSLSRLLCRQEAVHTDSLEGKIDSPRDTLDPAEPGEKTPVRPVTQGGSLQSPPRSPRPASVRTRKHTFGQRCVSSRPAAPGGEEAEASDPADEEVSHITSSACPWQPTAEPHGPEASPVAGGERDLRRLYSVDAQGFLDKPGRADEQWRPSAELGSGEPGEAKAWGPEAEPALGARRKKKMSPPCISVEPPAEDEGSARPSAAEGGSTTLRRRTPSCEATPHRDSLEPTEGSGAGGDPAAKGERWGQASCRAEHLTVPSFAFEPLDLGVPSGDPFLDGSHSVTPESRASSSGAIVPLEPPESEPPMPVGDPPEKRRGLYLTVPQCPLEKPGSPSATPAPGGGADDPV

Molecule	IC50 [1]	IC50 [2]	IC50 [3]
Cc1cc(NC(=O)CN[C@H]2CC[C@@H](S(=O)(=O)c3cccc(C(F)(F)F)c3)CC2)on1 [Compound 54, N-(3-methylisoxazol-5-yl)-2-((1S,4S)-4-(3-(trifluoromethyl)phenylsulfonyl)cyclohexylamino)acetamide]	7290 nM	> 10000 nM	4630 nM
O=C(CN[C@H]1CC[C@H](CS(=O)(=O)c2cccc(C(F)(F)F)c2)CC1)NC1CCCCC1 [Compound 118, N-cyclohexyl-2-((1R,4R)-4-((3-(trifluoromethyl)phenylsulfonyl)methyl)cyclohexylamino)acetamide]	> 10000 nM	> 10000 nM	790 nM
COc1cc(F)cc(C(=O)NC2CCC(C)(S(=O)(=O)c3cccc(C(F)(F)F)c3)CC2)c1 (stereo not drawn) [Compound 20, 3-fluoro-5-methoxy-N-(4-methyl-4-(3-(trifluoromethyl)phenylsulfonyl)cyclohexyl)benzamide]	1380 nM	1970 nM	70 nM
O=C(Nc1ccc(Oc2ccc(C(F)(F)F)nc2)nc1)[C@H]1C[C@H](S(=O)(=O)c2cccc(C(F)(F)F)c2)C1 [Compound 401, (1R,3R)-3-(3-(trifluoromethyl)phenylsulfonyl)-N-(6-(6-(trifluoromethyl)pyridin-3-yloxy)pyridin-3-yl) cyclobutanecarboxamide]	9260 nM	> 10000 nM	1430 nM
O=C(N[C@H]1CC[C@@H](S(=O)(=O)c2cccc(C(F)(F)F)c2)CC1)c1cc(C(F)(F)F)ccn1 [Compound 42, 4-(trifluoromethyl)-N-((1S,4S)-4-(3-(trifluoromethyl)phenylsulfonyl)cyclohexyl)picolinamide]	2860 nM	1510 nM	480 nM
Cn1nc(C(F)(F)F)cc1NC(=O)[C@H]1C[C@H](S(=O)(=O)c2cccc(C(F)(F)F)c2)C1 [Compound 407, (1R,3R)-N-(1-methyl-3-(trifluoromethyl)-1H-pyrazol-5-yl)-3-(3-(trifluoromethyl)phenylsulfonyl) cyclobutanecarboxamide]	1660 nM	> 10000 nM	5630 nM
CS(=O)(=O)c1ccc(C(=O)N[C@H]2CC[C@@](F)(S(=O)(=O)c3cccc(C(F)(F)F)c3)CC2)c(Cl)c1 [Compound 263, 2-chloro-N-((1S,4S)-4-fluoro-4-(3-(trifluoromethyl)phenylsulfonyl)cyclohexyl)-4-(methylsulfonyl)benzamide]	1360 nM	2230 nM	2510 nM
CC1(C(=O)N[C@H]2CC[C@@](F)(S(=O)(=O)c3cccc(C(F)(F)F)c3)CC2)CC1 [Compound 303, N-((1S,4S)-4-fluoro-4-(3-(tritluoromethyl)phenylsulfonyl)cyclohexyl)-1-methylcyclopropane carboxamide]	4150 nM	4340 nM	180 nM
CC(C)S(=O)(=O)c1cc(C(F)(F)F)cnc1C(=O)N[C@H]1CC[C@H](CS(=O)(=O)c2cccc(C(F)(F)F)c2)CC1 [Compound 341, 3-(isopropylsulfonyl)-5-(trifluoromethyl)-N-((1R,4R)-4-((3-(trifluoromethyl)phenylsulfonyl)methyl)cyclohexyl)picolinamide]	2020 nM	2190 nM	510 nM
O=C(N[C@H]1CC[C@H](CS(=O)(=O)c2cccc(C(F)(F)F)c2)CC1)c1cc(-c2ccc(F)cc2)n[nH]1 [Compound 108, 3-(4-fluorophenyl)-N-((1R,4R)-4-((3-(trifluoromethyl)phenylsulfonyl)methyl)cyclohexyl)-1H-pyrazole-5-carboxamide]	> 10000 nM	6300 nM	720 nM
O=C(NC[C@H]1C[C@H](S(=O)(=O)c2cccc(C(F)(F)F)c2)C1)c1ccc(F)c(C(F)(F)F)c1 [Compound 354, 4-fluoro-3-(trifluoromethyl)-N-(((1R,3R)-3-(3-(trifluoromethyl)phenylsulfonyl)cyclobutyl)methyl)benzamide]	7060 nM	> 10000 nM	140 nM
O=C(N[C@H]1CC[C@@H](CS(=O)(=O)c2cccc(C(F)(F)F)c2)CC1)c1ccc(F)c(Cl)c1 [Compound 142, 3-chloro-4-fluoro-N-((1S,4S)-4-((3-(trifluoromethyl)phenylsulfonyl)methyl)cyclohexyl)benzamide]	5880 nM	8230 nM	380 nM
4-fluoro-N-(4-methyl-4-(3- (trifluoromethyl)phenylsulfonyl) cyclohexyl)-3-(trifluoromethyl) benzamide [Compound 4]	6740 nM	8540 nM	140 nM
O=C(N[C@H]1CC[C@H](S(=O)(=O)c2cccc(C(F)(F)F)c2)CC1)c1cc(F)cc(Cl)c1 [Compound 60, 3-chloro-5-fluoro-N-((1R,4R)-4-(3-(trifluoromethyl)phenylsulfonyl)cyclohexyl)benzamide]	3900 nM	6440 nM	370 nM
CC(C)S(=O)(=O)c1cc(C(F)(F)F)cnc1C(=O)N[C@H]1CC[C@@H](S(=O)(=O)c2cccc(C(F)(F)F)c2)CC1 [Compound 339, 3-(isopropylsulfonyl)-5-(trifluoromethyl)-N-((1S,4S)-4-(3-(trifluoromethyl)phenylsulfonyl)cyclohexyl) picolinamide]	3330 nM	5270 nM	220 nM
Cc1cc(C(=O)N[C@H]2CC[C@@H](S(=O)(=O)c3cccc(C(F)(F)F)c3)CC2)c(C(F)(F)F)o1 [Compound 198, 5-methyl-2-(trifluoromethyl)-N-((1S,4S)-4-(3-(trifluoromethyl)phenylsulfonyl)cyclohexyl)furan-3-carboxamide]	> 10000 nM	> 10000 nM	270 nM

Results, then the molecule that gave them:

IC50 [1]	IC50 [2]	IC50 [3]	Molecule
630 nM	3260 nM	500 nM	O=C(N[C@H]1CC[C@@H](S(=O)(=O)c2cc(F)cc(C(F)(F)F)c2)CC1)c1ccc(Cl)c(OC(F)(F)F)c1 [Compound 322, 4-chloro-N-((1S,4S)-4-(3-fluoro-5-(trifluoromethyl)phenylsulfonyl)cyclohexyl)-3-(trifluoromethoxy)benzamide]
640 nM	680 nM	290 nM	O=C(NC[C@H]1C[C@H](S(=O)(=O)c2cccc(C(F)(F)F)c2)C1)c1cc(F)cc(Cl)c1 [Compound 370, 3-chloro-5-fluoro-N-(((1R,3R)-3-(3-(trifluoromethyl)phenylsulfonyl)cyclobutyl)methyl)benzamide]
1040 nM	2290 nM	1460 nM	O=S(=O)(NC[C@H]1C[C@H](S(=O)(=O)c2cccc(C(F)(F)F)c2)C1)c1ccc(C(F)(F)F)cc1 [Compound 424, 4-(trifluoromethyl)-N-(((1R,3R)-3-(3-(trifluoromethyl)phenylsulfonyl)cyclobutyl)methyl)benzenesulfonamide]
240 nM	920 nM	1840 nM	O=C(CN[C@H]1C[C@@H](S(=O)(=O)c2cccc(C(F)(F)F)c2)C1)NC1CCC(F)(F)CC1 [Compound 431, N-(4,4-difluorocyclohexyl)-2-((1S,3S)-3-(3-(trifluoromethyl)phenylsulfonyl)cyclobutylamino) acetamide]
330 nM	1320 nM	2210 nM	O=C(NC1CCC(S(=O)(=O)c2cccc(C(F)(F)F)c2)CC1)c1ccn(CC(F)(F)F)n1 (stereo not drawn) [Compound 14, 1-(2,2,2-trifluoroethyl)-N-(4-(3-(trifluoromethyl)phenylsulfonyl)cyclohexyl)-1H-pyrazole-3-carboxamide]
1070 nM	1550 nM	3760 nM	O=S(=O)(CCC(F)(F)F)NC[C@H]1C[C@H](S(=O)(=O)c2cccc(C(F)(F)F)c2)C1 [Compound 425, 3,3,3-trifluoro-N-(((1R,3R)-3-(3-(trifluoromethyl)phenylsulfonyl)cyclobutyl)methyl)propane-1-sulfonamide]
430 nM	280 nM	700 nM	O=S(=O)(N[C@H]1CC[C@@](F)(S(=O)(=O)c2cccc(C(F)(F)F)c2)CC1)c1cccc(C(F)(F)F)c1 [Compound 300, N-((1S,4S)-4-fluoro-4-(3-(trifluoromethyl)phenylsulfonyl)cyclohexyl)-3-(trifluoromethyl) benzenesulfonamide]
1340 nM	5830 nM	1190 nM	CN(C(=O)CN[C@H]1CC[C@@H](CS(=O)(=O)c2cccc(C(F)(F)F)c2)CC1)C(C)(C)C [Compound 145, N-tert-butyl-N-methyl-2-((1S,4S)-4-((3-(trifluoromethyl)phenylsulfonyl)methyl)cyclohexylamino)acetamide]
1270 nM	1230 nM	940 nM	CC(C)(C)NC(=O)CN[C@H]1CC[C@](F)(S(=O)(=O)c2cccc(C(F)(F)F)c2)CC1 [Compound 28, N-tert-butyl-2-((1R,4R)-4-fluoro-4-(3-(trifluoromethyl)phenylsulfonyl)cyclohexylamino)acetamide]
910 nM	1250 nM	1060 nM	O=C(N[C@H]1CC[C@@H](S(=O)(=O)c2cccc(C(F)(F)F)c2)CC1)c1cc(-c2ccc(F)cc2)n[nH]1 [Compound 46, 3-(4-fluorophenyl)-N-((1S,4S)-4-(3-(trifluoromethyl)phenylsulfonyl)cyclohexyl)-1H-pyrazole-5-carboxamide]
